For assay [1], the system named is FGF-induced BrdU incorporation. Put plainly: FGF-induced BrdU incorporation assay. Type of assay: cell-based. To be noted: read-out: FGF-Induced BrdU Incorp. IC50. On the procedure: (§1) PDGF-, FGF-, and EGF-Induced BRDU Incorporation Assay
(§2) 1. Cells were seeded at 8000 cells/well in DMEM, 10% CS, 2 mM Gln in a 96 well plate. Cells were incubated overnight at 37° C. in 5% CO2.
(§3) 2. After 24 hours, the cells were washed with PBS, and then were serum starved in serum free medium (0% CS DMEM with 0.1% BSA) for 24 hours.
(§4) 3. On day 3, ligand (PDGF=3.8 nM, prepared in DMEM with 0.1% BSA) and test compounds were added to the cells simultaneously. The negative control wells received serum free DMEM with 0.1% BSA only; the positive control cells received the ligand (PDGF) but no test compound. Test compounds were prepared in serum free DMEM with ligand in a 96 well plate, and serially diluted for 7 test concentrations.
(§5) 4. After 20 hours of ligand activation, diluted BrdU labeling reagent (1:100 in DMEM, 0.1% BSA) was added and the cells were incubated with BrdU (final concentration=10 μM) for 1.5 hours.
(§6) 5. After incubation with labeling reagent, the medium was removed by decanting and tapping the inverted plate on a paper towel. FixDenat solution was added (50 μL/well) and the plates were incubated at room temperature for 45 minutes on a plate shaker.
(§7) 6. The FixDenat solution was thoroughly removed by decanting and tapping the inverted plate on a paper towel. Milk was added (5% dehydrated milk in PBS, 200 μL/well) as a blocking solution and the plate was incubated for 30 minutes at room temperature on a plate shaker.
(§8) 7. The blocking solution was removed by decanting and the wells were washed once with PBS. Anti-BrdU-POD solution (1:100 dilution in PBS, 1% BSA) was added (100 μL/well), and the plate was incubated for 90 minutes at room temperature on a plate shaker.
(§9) 8. The antibody conjugate was thoroughly removed by decanting and rinsing the wells 5 times with PBS, and the space was dried by inverting and tapping on a paper towel.
(§10) 9. TMB substrate solution was added (100 μL/well) and incubated for 20 minutes at room temperature on a plate shaker until color development was sufficient for photometric detection.
(§11) 10. The absorbance of the samples were measured at 410 nm (in “dual wavelength” mode with a filter reading at 490 nm, as a reference wavelength) on a Dynatech ELISA plate reader.
(§12) The IC50 values were measured for several of the compounds of the invention. These values are depicted in Table 10.

In assay [2] the test system is EGF-induced BrdU incorporation. The assay can be described thus: EGF-induced BrdU incorporation assay. Type of assay: cell-based. The note with it: read-out: EGF-Induced BrdU Incorp. IC50. On the procedure:
as §1, §2, §3, §4, §5, §6, §7, §8, §9, §10, §11, §12

The test system of a further assay is HUV-EC-C cells; VEGF. The assay can be described thus: HUVEC-VEGF 3H-thymidine incorporation assay. In kind it is cell-based, human. The protocol:
The following protocol is used to measure a compound's activity against VEGF and aFGF, all of which are expressed by HUVEC cells.
1. […] After cells have detached from the flask, add an equal volume of assay medium and transfer to a 50 mL sterile centrifuge tube (Fisher Scientific; catalogue no. 05-539-6).
2. Wash the cells with about 35 mL assay medium in the 50 mL sterile centrifuge tube by adding the assay medium, centrifuge for 10 minutes at approximately 200×g, aspirate the supernatant, and resuspend with 35 mL D-PBS. Repeat the wash two more times with D-PBS, resuspend the cells in about 1 mL assay medium/15 cm^2 of tissue culture flask. Assay medium consists of F12K medium (Gibco BRL; catalogue no. 21127-014)+0.5% heat-inactivated fetal bovine serum. Count the cells with a Coulter Counter® (Coulter Electronics, Inc.) and add assay medium to the cells to obtain a concentration of 0.8-1.0×10^5 cells/mL.
3. Add cells to 96-well flat-bottom plates at 100 μL/well or 0.8-1.0×10^4 cells/well; incubate ˜24h at 37° C., 5% CO^2.
1. Make up two-fold drug titrations in separate 96-well plates, generally 50 μM on down to 0 μM. Use the same assay medium as mentioned in day 0, step 2 above. Titrations are made by adding […] of drug at 200 μM (4× the final well concentration) to the top well of a particular plate column. Since the stock drug concentration is usually 20 mM in DMSO, the 200 μM drug concentration contains 2% DMSO.
Therefore, diluent made up to 2% DMSO in assay medium (F12K+0.5% fetal bovine serum) is used as diluent for the drug titrations in order to dilute the drug but keep the DMSO concentration constant. Add this diluent to the remaining wells in the column at 60 μL/well. Take 60 μL from the 120 μL of 200 μM drug dilution in the top well of the column and mix with the 60 μL in the second well of the column. Take 60 μL from this well and mix with the 60 μL in the third well of the column, and so on until two-fold titrations are completed. When the next-to-the-last well is mixed, take 60 μL of the 120 μL in this well and discard it. Leave the last well with 60 μL of DMSO/media diluent as a non-drug-containing control. Make 9 columns of titrated drug, enough for triplicate wells each for 1) VEGF (obtained from Pepro Tech Inc., catalogue no. 100-200, 2) endothelial cell growth factor (ECGF) (also known as acidic fibroblast growth factor, or aFGF) (obtained from Boehringer Mannheim Biochemica, catalogue no. 1439 600); or, 3) human PDGF B/B (1276-956, Boehringer Mannheim, Germany) and assay media control. ECGF comes as a preparation with sodium heparin.
2. Transfer 50 μL/well of the drug dilutions to the 96-well assay plates containing the 0.8-1.0×10^4 cells/100 μL/well of the HUV-EC-C cells from day 0. and incubate ˜2 h at 37° C., 5% CO2.
3. […] As with the drugs, the growth factor concentrations are 4× the desired final concentration. Use the assay media from day 0 step 2 to make the concentrations of growth factors. Incubate approximately 24 hours at 37° C., 5% CO2. Each well will have 50 μL drug dilution, 50 μL growth factor or media, and 100 μL cells, =200 μL/well total. Thus the 4× concentrations of drugs and growth factors become 1× once everything has been added to the wells.
1. Add ^3H-thymidine (Amersham; catalogue no. TRK-686) at 1 μCi/well (10 μL/well Of 100 μCi/mi solution made up in RPMI media +10% heat-inactivated fetal bovine serum) and incubate μ24 h at 37° C., 5% CO2. RPMI was obtained from Gibco BRL, catalogue no. 11875-051.
1. Freeze plates overnight at […]
1. Thaw plates and harvest with a 96-well plate harvester (Tomtec Harvester 96®) onto filter mats (Wallac; catalogue no. 1205-401); read counts on a Wallac Betaplate™ liquid scintillation counter.
The IC50 values were measured for several of the compounds of the invention.

Where two headings read alike, the source gives them in different places.

Broadly, the IC50 is the midpoint of a concentration-inhibition curve. With `COc1ccc2c(c1)NC(=O)C2=Cc1[nH]cc(C)c1CCC(=O)O` [IN-028, 3-[2-(6-Methoxy-2-oxo-1,2-dihydro-indol-3-ylidenemethyl)-4-methyl-1H-pyrrol-3-yl]-propionic acid], the IC50 in assay [1] was more than 50 µM; in assay [2] it was more than 50 µM; in the assay on HUV-EC-C cells; VEGF (Homo sapiens), 620 nM.
Take `Cc1c[nH]c(C=C2C(=O)Nc3ccccc32)c1CCC(=O)O` [IN-026, 3-[4-Methyl-2-(2-oxo-1,2-dihydro-indol-3-ylidenemethyl)-1H-pyrrol-3-yl]-propionic acid]: the results for the IC50 in assay [1] and in assay [2] were 25 µM and more than 100 µM, respectively.
For the compound `O=C(O)CCc1c(C=C2C(=O)Nc3ccc(Cl)cc32)[nH]c2c1CCCC2` [IN-002, 3-[2-(5-Chloro-2-oxo-1,2-dihydro-indol-3-ylidenemethyl)-4,5.6,7-tetrahydro-1H-indol-3-yl]-propionic acid], the concentration for half-maximal inhibition (IC50) in assay [1] (FGF-induced) was 23.6 µM; in assay [2] (EGF-induced), 83.5 µM; with HUV-EC-C cells; VEGF, 0.04 nM.
With `Cc1c[nH]c(C=C2C(=O)Nc3ccc(Cl)cc32)c1CCC(=O)O` [IN-027, 3-[2-(5-Chloro-2-oxo-1,2-dihydro-indol-3-ylidenemethyl)-4-methyl-1H-pyrrol-3-yl]-propionic acid], the IC50 in assay [2] is more than 50 µM; with HUV-EC-C cells; VEGF (Homo sapiens), less than 70 nM.
Consider `CNC(=O)CCc1c(C=C2C(=O)Nc3ccccc32)[nH]c2c1CCCC2` [IN-012, N-Methyl-3-[2-(2-oxo-1,2-dihydro-indol-3-ylidenemethyl)-4,5,6,7-tetrahydro-1H-indol-3-yl]-propionamide], for which the IC50 in assay [1] is more than 50 µM; in assay [2] it was 78.5 µM; in the assay on HUV-EC-C cells; VEGF (Homo sapiens), less than 30 nM.
For `NC(=O)CCc1c(C=C2C(=O)Nc3ccccc32)[nH]c2c1CCCC2` [IN-010, 3-[2-(2-Oxo-1,2-dihydro-indol-3-ylidenemethyl)-4,5,6,7-tetrahydro-1H-indol-3-yl]-propionamide] the same measures were more than 50 µM, 95.4 µM and less than 30 nM.
Turning to `Cc1c[nH]c(C=C2C(=O)Nc3cccc(C)c32)c1CCC(=O)O` [IN-029, 3-[2-(4-Methyl-2-oxo-1,2-dihydro-indol-3-ylidenemethyl)-4-methyl-1H-pyrrol-3-yl]-propionic acid], the IC50 in assay [1] is more than 50 µM; in assay [2] (EGF-induced), 43.5 µM; with HUV-EC-C cells; VEGF (Homo sapiens), less than 70 nM.
Consider `CN(C)C(=O)CCc1c(C=C2C(=O)Nc3ccccc32)[nH]c2c1CCCC2` [IN-008, N,N-Dimethyl-3-[2-(2-oxo-1,2-dihydro-indol-3-ylidenemethyl)-4,5,6,7-tetrahydro-1H-indol-3-yl]-propionamide], for which the IC50 in assay [1] is more than 50 µM; in assay [2] it was more than 50 µM; in the assay on HUV-EC-C cells; VEGF (Homo sapiens), less than 3 nM.
Take `CN(C)CCCc1c(C=C2C(=O)Nc3ccccc32)[nH]c2c1CCCC2` [IN-009, 3-[3-(3-Dimethylamino-propyl)-4,5,6,7-tetrahydro-1H-indol-2-ylmethylene]-1,3-dihydro-indol-2-one]: the values for the IC50 (in assay [1]; in assay [2]; in the assay with HUV-EC-C cells; VEGF (Homo sapiens)) were more than 50 µM, more than 50 µM and 290 nM, respectively.
On to `O=C1Nc2ccccc2C1=Cc1[nH]c2c(c1CCC(=O)N1CCOCC1)CCCC2` [IN-011, 3-[3-(3-Morpholin-4-yl-3-oxo-propyl)-4,5 6,7-tetrahydro-1H-indol-2-ylmethylene]-1,3-dihydro-indol-2-one], for which the IC50 in assay [1] is more than 50 µM; in assay [2] it was 83.5 µM; with HUV-EC-C cells; VEGF (Homo sapiens), 220 nM.
As to `Cc1cccc2c1C(=Cc1[nH]c3c(c1CCC(=O)O)CCCC3)C(=O)N2` [IN-004, 3-[2-(4-Methyl-2-oxo-1,2-dihydro-indol-3-ylidenemethyl)-4,5,6,7-tetrahydro-1H-indol-3-yl]-propionic acid], the figures for the half-maximal inhibitory concentration (IC50) (in assay [1]; in assay [2]; in the assay on HUV-EC-C cells; VEGF (Homo sapiens)) were 26.7 µM, 52 µM and 0.94 nM, respectively.
For `Cc1c[nH]c(C=C2C(=O)Nc3cc(Cl)ccc32)c1CCC(=O)O` [IN-030, 3-[2-(6-Chloro-2-oxo-1,2-dihydro-indol-3-ylidenemethyl)-4-methyl-1H-pyrrol-3-yl]-propionic acid] the same measures were more than 50 µM, more than 50 µM and 16 nM.
The matching figures for `COc1ccc2c(c1)NC(=O)C2=Cc1[nH]c2c(c1CCC(=O)O)CCCC2` [IN-007, 3-[2-(6-Methoxy-2-oxo-1,2-dihydro-indol-3-ylidenemethyl)-4,5,6,7-tetrahydro-1H-indol-3-yl]-propionic acid]: 42.1 µM, more than 100 µM and 20 nM.
`O=C(CCc1c(C=C2C(=O)Nc3ccccc32)[nH]c2c1CCCC2)NCCN1CCOCC1` [IN-013, N-(2-Morpholin-4-yl-ethyl)-3-[2-(2-oxo-1,2-dihydro-indol-3-ylidenemethyl)-4,5,6,7-tetrahydro-1H-indol-3-yl]-propionamide]: the IC50 in assay [1] was more than 50 µM; in assay [2], 52 µM; with HUV-EC-C cells; VEGF (Homo sapiens), less than 30 nM.
The matching figures for `O=C(O)CCc1c(C=C2C(=O)Nc3ccc(Br)cc32)[nH]c2c1CCCC2` [IN-003, 3-[2-(5-Bromo-2-oxo-1,2-dihydro-indol-3-ylidenemethyl)-4,5,6,7-tetrahydro-1H-indol-3-yl]-propionic acid]: 15.7 µM, 78.5 µM and 0.3 nM.
The matching figures for `O=C(O)CCc1c(C=C2C(=O)Nc3ccccc32)[nH]c2c1CCCC2` [IN-001, 3-[2-(2-Oxo-1,2-dihydro-indol-3-ylidenemethyl)-4,5,6,7-tetrahydro-1H-indol-3-yl]-propionic acid]: 18.2 µM, 95.4 µM and 1.9 nM.

For the origin of these results see patent publication US20040067531A1, “Methods of modulating protein tyrosine kinase function with substituted indolinone compounds” (SUGEN, INC., priority 1997, published 2004).
